From patent US12655116B2, “Substituted isophthalic acid diamides” (Bayer Aktiengesellschaft, priority 2020, dated 2026)

Columns and labels:
ABUTH [1] = test: Pre-emergence herbicidal action against ABUTH; type: in vivo, Abutilon theophrasti
Outline: (§1)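 Greenhouse pots of sandy loam held seeds covered with soil, onto which the compound was applied before emergence. An aqueous suspension or emulsion of WP or EC was used at 600 to 800 l/ha with 0.2% wetting agent. Percent damage was judged visually at 3 weeks.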

ALOMY [2] = test: Pre-emergence herbicidal action against ALOMY; type: in vivo, Alopecurus myosuroides; conditions: 80 g/ha, pre-emergence, scored visually after 3 weeks vs untreated controls (100% = plants have died, 0% = like control plants)
Outline: as §1

AMARE [3] = test: Pre-emergence herbicidal action against AMARE; type: in vivo, Amaranthus retroflexus
Outline: as §1

ECHCG [4] = test: Pre-emergence herbicidal action against ECHCG; type: in vivo, Echinochloa crus-galli
Outline: as §1

MATIN [5] = test: Pre-emergence herbicidal action against MATIN; type: in vivo, Matricaria inodora
Outline: as §1

POLCO = test: Pre-emergence herbicidal action against POLCO; type: in vivo, Polygonum convolvulus; conditions: dosage 80 g/ha
Outline: as §1

SETVI [6] = test: Pre-emergence herbicidal action against SETVI; type: in vivo, Setaria viridis
Outline: as §1

VERPE [7] = test: Pre-emergence herbicidal action against VERPE; type: in vivo, Veronica persica; conditions: dosage 80 g/ha
Outline: as §1

VIOTR [8] = test: Pre-emergence herbicidal action against VIOTR; type: in vivo, Viola tricolor
Outline: as §1

DIGSA [9] = test: Pre-emergence herbicidal action against DIGSA; type: in vivo, Digitaria sanguinalis
Outline: as §1

ABUTH [10] = test: Post-emergence herbicidal action against ABUTH; type: in vivo, Abutilon theophrasti; conditions: visual assessment about 3 weeks after treatment vs untreated controls
Outline: (§2)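 A WP or EC formulation diluted in water with 0.2% wetting agent was sprayed at 600 to 800 l/ha onto one-leaf-stage plants grown in sandy loam. About 3 weeks later, action was rated visually in percent, 100% being dead plants.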

AMARE [11] = test: Post-emergence herbicidal action against AMARE; type: in vivo, Amaranthus retroflexus; conditions: 20 g/ha, visual assessment about 3 weeks after treatment, 100% = plants have died, 0% = like control plants
Outline: as §2

AVEFA [12] = test: Post-emergence herbicidal action against AVEFA; type: in vivo, Avena fatua; conditions: 20 g/ha, visual assessment about 3 weeks after treatment, 100% = plants have died, 0% = like control plants
Outline: as §2

ECHCG [13] = test: Post-emergence herbicidal action against ECHCG; type: in vivo, Echinochloa crus-galli
Outline: as §2

MATIN [14] = test: Post-emergence herbicidal action against MATIN; type: in vivo, Matricaria inodora; conditions: dosage 20 g/ha
Outline: as §2

PHBPU = test: Post-emergence herbicidal action against PHBPU; type: in vivo, Pharbitis purpurea
Outline: as §2

SETVI [15] = test: Post-emergence herbicidal action against SETVI; type: in vivo, Setaria viridis
Outline: as §2

VERPE [16] = test: Post-emergence herbicidal action against VERPE; type: in vivo, Veronica persica; conditions: 20 g/ha
Outline: as §2

DIGSA [17] = test: Post-emergence herbicidal action against DIGSA; type: in vivo, Digitaria sanguinalis
Outline: as §2

AVEFA [18] = test: Pre-emergence herbicidal action against AVEFA; type: in vivo, Avena fatua; conditions: Avena fatua, 504 h, pre-emergence
Outline: as §1

ALOMY [19] = test: Post-emergence herbicidal action against ALOMY; type: in vivo, Alopecurus myosuroides; conditions: Alopecurus myosuroides, 504 h, visual assessment about 3 weeks after treatment vs untreated controls
Outline: as §2

VIOTR [20] = test: Post-emergence herbicidal action against VIOTR; type: in vivo, Viola tricolor; conditions: Viola tricolor, 504 h
Outline: as §2

[21] = 80 g/ha, scored visually after 3 weeks vs untreated controls (100% = plants have died, 0% = like control plants)
[22] = Setaria viridis, 504 h, dosage 20 g/ha

## Cc1c(C(=O)Nc2nnnn2C)ccc(C(F)F)c1C(=O)NCC(F)F [Example 1-49]
ABUTH [1]; [21]
  Pre-emergence action against ABUTH (herbicidal activity): 100%
ABUTH [1]; dosage 20 g/ha, scored visually after 3 weeks vs untreated controls, 100% = plants have died, 0% = like control plants
  Pre-emergence action against ABUTH (herbicidal activity in percent): 80%
ALOMY [2]
  Pre-emergence action against ALOMY (herbicidal activity): 80%
AMARE [3]; 20 g/ha, scored visually after 3 weeks vs untreated controls, 100% = plants have died, 0% = like control plants
  Pre-emergence action against AMARE in %: 100%
AMARE [3]; [21]
  Pre-emergence action against AMARE in %: 100%
ECHCG [4]; 80 g/ha
  Pre-emergence action against ECHCG in %: 80%
MATIN [5]; dosage 20 g/ha
  Pre-emergence action against MATIN in %: 90%
MATIN [5]; dosage 80 g/ha
  Pre-emergence action against MATIN in %: 100%
POLCO
  Pre-emergence action against POLCO in %: 90%
SETVI [6]; dosage 80 g/ha
  Pre-emergence action against SETVI in %: 80%
VERPE [7]
  Pre-emergence action against VERPE in %: 100%
VIOTR [8]; dosage 80 g/ha
  Pre-emergence action against VIOTR in %: 100%
DIGSA [9]; dosage 20 g/ha
  Pre-emergence action against DIGSA in %: 90%
DIGSA [9]; dosage 80 g/ha
  Pre-emergence action against DIGSA in %: 100%
ABUTH [10]; dosage 5 g/ha
  Post-emergence action against ABUTH in %: 90%
ABUTH [10]; dosage 20 g/ha
  Post-emergence action against ABUTH in %: 90%
AMARE [11]
  Post-emergence action at 20 g/ha against AMARE in %: 90%
AVEFA [12]
  Post-emergence action at 20 g/ha against AVEFA in %: 80%
ECHCG [13]; dosage 5 g/ha
  Post-emergence action against ECHCG in %: 80%
ECHCG [13]; dosage 20 g/ha
  Post-emergence action against ECHCG in %: 90%
MATIN [14]
  Post-emergence action against MATIN in %: 80%
PHBPU; dosage 5 g/ha
  Post-emergence action against PHBPU in %: 80%
PHBPU; dosage 20 g/ha
  Post-emergence action against PHBPU in %: 90%
SETVI [15]; dosage 5 g/ha
  Post-emergence action against SETVI in %: 90%
SETVI [15]; dosage 20 g/ha
  Post-emergence action against SETVI in %: 100%
VERPE [16]
  Post-emergence action against VERPE in %: 90%
DIGSA [17]; 5 g/ha
  Post-emergence action against DIGSA in %: 80%
DIGSA [17]; 20 g/ha
  Post-emergence action against DIGSA: 90%

## CCNC(=O)c1c(C(F)F)ccc(C(=O)Nc2nnnn2C)c1Br [Example 1-226]
ABUTH [1]; Abutilon theophrasti, 504 h, 80 g/ha, scored visually after 3 weeks vs untreated controls (100% = plants have died, 0% = like control plants)
  pest or weed control at 80 g/ha: 90%
ALOMY [2]; Alopecurus myosuroides, 504 h
  pest or weed control at 80 g/ha: 90%
AMARE [3]; Amaranthus retroflexus, 504 h, 20 g/ha, scored visually after 3 weeks vs untreated controls, 100% = plants have died, 0% = like control plants
  pest or weed control at 20 g/ha: 100%
AMARE [3]; Amaranthus retroflexus, 504 h, 80 g/ha, scored visually after 3 weeks vs untreated controls, 100% = plants have died, 0% = like control plants
  pest or weed control at 80 g/ha: 100%
AVEFA [18]; 80 g/ha
  pest or weed control at 80 g/ha: 90%
AVEFA [18]; 20 g/ha, scored visually after 3 weeks, 100% = plants have died, 0% = like control plants
  pest or weed control at 20 g/ha: 80%
ECHCG [4]; Echinochloa crus-galli, 504 h, 20 g/ha
  pest or weed control at 20 g/ha: 80%
ECHCG [4]; Echinochloa crus-galli, 504 h, 80 g/ha
  pest or weed control at 80 g/ha: 100%
MATIN [5]; Tripleurospermum inodorum, 504 h, dosage 20 g/ha
  pest or weed control at 20 g/ha: 100%
MATIN [5]; Tripleurospermum inodorum, 504 h, dosage 80 g/ha
  pest or weed control at 80 g/ha: 100%
POLCO; Fallopia convolvulus, 504 h
  pest or weed control at 80 g/ha: 90%
SETVI [6]; [22]
  pest or weed control at 20 g/ha: 100%
SETVI [6]; Setaria viridis, 504 h, dosage 80 g/ha
  pest or weed control at 80 g/ha: 100%
VERPE [7]; Veronica persica, 504 h
  pest or weed control at 80 g/ha: 90%
VIOTR [8]; Viola tricolor, 504 h, dosage 20 g/ha
  pest or weed control at 20 g/ha: 80%
VIOTR [8]; Viola tricolor, 504 h, dosage 80 g/ha
  pest or weed control at 80 g/ha: 100%
DIGSA [9]; Digitaria sanguinalis, 504 h, dosage 80 g/ha
  pest or weed control at 80 g/ha: 90%
ABUTH [10]; Abutilon theophrasti, 504 h, dosage 5 g/ha
  pest or weed control at 5 g/ha: 90%
ABUTH [10]; Abutilon theophrasti, 504 h, dosage 20 g/ha
  pest or weed control at 20 g/ha: 90%
ALOMY [19]; dosage 5 g/ha
  pest or weed control at 5 g/ha: 80%
ALOMY [19]; dosage 20 g/ha
  pest or weed control at 20 g/ha: 100%
AMARE [11]; Amaranthus retroflexus, 504 h
  pest or weed control at 20 g/ha: 100%
AVEFA [12]; Avena fatua, 504 h
  pest or weed control at 20 g/ha: 80%
ECHCG [13]; Echinochloa crus-galli, 504 h, dosage 5 g/ha
  pest or weed control at 5 g/ha: 100%
ECHCG [13]; Echinochloa crus-galli, 504 h, dosage 20 g/ha
  pest or weed control at 20 g/ha: 100%
MATIN [14]; Tripleurospermum inodorum, 504 h
  pest or weed control at 20 g/ha: 80%
PHBPU; Ipomoea purpurea, 504 h, dosage 20 g/ha
  pest or weed control at 20 g/ha: 80%
SETVI [15]; Setaria viridis, 504 h, dosage 5 g/ha
  pest or weed control at 5 g/ha: 100%
SETVI [15]; [22]
  pest or weed control at 20 g/ha: 100%
VERPE [16]; Veronica persica, 504 h
  pest or weed control at 20 g/ha: 90%
VIOTR [20]; 5 g/ha
  pest or weed control at 5 g/ha: 100%
VIOTR [20]; 20 g/ha
  pest or weed control at 20 g/ha: 100%
DIGSA [17]; Digitaria sanguinalis, 504 h, 5 g/ha
  pest or weed control at 5 g/ha: 90%
DIGSA [17]; Digitaria sanguinalis, 504 h, 20 g/ha
  pest or weed control at 20 g/ha: 100%
